Experimental data reported in patent US10981864B2, “Crystalline modifications of N-(4,5-bismethanesulfonyl-2-methylbenzoyl)guanidine hydrochloride and N-(4,5-bismethanesulfonyl-2-methylbenzoyl)guanidine salts” (MERCK PATENT GMBH, priority 2016, dated 2021).
“And” between values parts separate entries of the source, which are not always exact repeats. Equal values may be shown once. “Also recorded” adds a separate entry of the source. Where a name gives a salt, the structure may show the parent alone.

Assays:
[1] = system: animal models of DMD and dilated cardiomyopathy; conditions: cited from earlier work
[2] = molecular target: sodium-hydrogen antiporter 1 (NHE-1) (Homo sapiens, UniProt P19634); conditions: cited from earlier work
human PASMCs = conditions: in vitro; cited from earlier work
SuHx rats = conditions: in vivo; cited from earlier work
[3] = system: monocrotaline-treated rats; conditions: in vivo; cited from earlier work
[4] = Mini-dissolution in FeSSIF medium (pH 5.0), dissolved quantity by HPLC; type: physicochemical; conditions: for Dissolution levels in FeSSIF pH 5.0: FeSSIF pH 5.0, 37° C.; for Dissolution behavior compared to prior-art form HCl-H1: biorelevant media, Fed-state conditions (FeSSIF, pH 5.0)
Experimental: Approximately 10-12 mg of N-(4,5-bis-methanesulfonyl-2-methyl-benzoyl)guanidine form HCl-H1 (HCl salt hydrate form, prior-art), HCl salt anhydrous forms (forms HCl-A1, HCl-A2, HCl-A3), and novel salt forms [phosphate salt (form Phosphate-NF1), maleate salt (form Maleate-NF2), oxalate salt (form Oxalate-NF1), citrate salt (form citrate-NF1), sulfate salt (form Sulfate-NF3), succinate salt (form Succinate-NF1), malonate salt (form Malonate-NF1), besylate salt (form Besylate-NF1), p-tosylate salt (form Tosylate-NF1), malate salt (form Malate-NF1), fumarate salt (form Fumarate-NF1), tartrate salt (form Tartrate-NF1)] are weighed into 4 mL glass vials, and dispersed in 4 mL FeSSIF medium (pH 5.0, Acetate buffer capacity increased by factor 4 to ensure stable pH conditions over course of dissolution experiments).
All dispersions are agitated at 37° C. for up to 2 hours. At defined time intervals (5 min, 15 min, 60 min, 120 min), 0.4 mL sample aliquots of homogeneous dispersions are withdrawn by a syringe, and filtrated via syringe filter adapters (PTFE, 0.2 μm). Clear filtrates are diluted (1:20) with respective Acetate blank buffer, and diluted samples analyzed by HPLC for dissolved quantities of N-(4,5-bis-methanesulfonyl-2-methyl-benzoyl)-guanidine.

[5] = Thermal behaviour (DSC/TGA), thermal stability; type: physicochemical; conditions: DSC/TGA 5 K/min
Experimental: As used herein, unless stated otherwise, the DSC measurements are carried out using a Mettler-Toledo DSC 821 with a heating rate of 5 K/min, using nitrogen purge gas at 50 mL/min.
As used herein, unless stated otherwise, the TGA measurements are carried out using a Mettler-Toledo TGA 851 with a heating rate of 5 K/min, using nitrogen purge gas at 50 mL/min.

[6] = Water Vapour Sorption isotherm (DVS), hygroscopicity acc. to Ph. Eur.; type: physicochemical; conditions: for Water uptake levels (Water Vapour Sorption): entire relative humidity range 0-98% rh, 25° C.; for Tendency to undergo hydrate formation: upon exposure to elevated RH levels
Experimental: As used herein, unless stated otherwise, Water Vapour Sorption isotherm measurements are carried out on a DVS-1 or a DVS-Intrinsic system from SMS.
A second endothermic event occurs at >180° C., which is due to melting of the dehydrated form. This is followed by immediate re-crystallisation (exothermic event), and subsequent melting of the re-crystallized phase at >240° C. […] DSC scan of form HCl-H1 was acquired on a Mettler-Toledo DSC 821 with a heating rate of 5 K/min, using nitrogen purge gas at 50 mL/min. […] Form HCl-H1 can be classified as non-hygroscopic acc. to Ph. Eur. criteria (section 5.11.). […] Water Vapour Sorption isotherm was acquired on a DVS-1 system from SMS. • Dissolution level of form HCl-H1 in Fed-State Simulated Intestinal Fluid [FeSSIF, pH 5.0] at 37° C. was determined to be approx. 1.50 mg/mL (after 15 min), approx. 4.16 mg/mL (after 60 min), and approx. 4.54 mg/mL (after 120 min), respectively (see example 17).

Sequence of sodium-hydrogen antiporter 1 (NHE-1) (P19634 whole entry, species assumed): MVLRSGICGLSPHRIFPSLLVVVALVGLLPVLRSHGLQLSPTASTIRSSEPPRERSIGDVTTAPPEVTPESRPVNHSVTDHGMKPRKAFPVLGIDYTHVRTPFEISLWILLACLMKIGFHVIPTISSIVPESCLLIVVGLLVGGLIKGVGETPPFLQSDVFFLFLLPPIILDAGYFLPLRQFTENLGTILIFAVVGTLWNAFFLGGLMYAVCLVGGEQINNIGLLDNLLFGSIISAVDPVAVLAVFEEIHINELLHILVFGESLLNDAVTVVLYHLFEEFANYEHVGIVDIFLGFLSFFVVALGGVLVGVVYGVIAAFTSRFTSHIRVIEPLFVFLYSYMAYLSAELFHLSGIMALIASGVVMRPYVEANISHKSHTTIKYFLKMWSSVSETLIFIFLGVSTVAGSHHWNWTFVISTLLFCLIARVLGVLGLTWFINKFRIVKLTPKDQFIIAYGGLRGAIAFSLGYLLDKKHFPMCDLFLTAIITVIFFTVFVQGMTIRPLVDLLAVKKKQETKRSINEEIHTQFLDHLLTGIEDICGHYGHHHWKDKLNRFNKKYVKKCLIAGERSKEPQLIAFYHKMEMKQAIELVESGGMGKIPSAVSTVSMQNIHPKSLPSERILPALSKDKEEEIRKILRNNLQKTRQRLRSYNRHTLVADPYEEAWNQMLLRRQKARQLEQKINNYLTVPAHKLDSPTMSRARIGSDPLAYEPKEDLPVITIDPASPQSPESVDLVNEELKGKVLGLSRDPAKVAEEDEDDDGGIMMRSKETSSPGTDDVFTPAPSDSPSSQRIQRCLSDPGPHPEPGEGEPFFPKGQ

**Q.** With `Cc1cc(S(C)(=O)=O)c(S(C)(=O)=O)cc1C(=O)N=C(N)N` [Rimeporide, N-(4,5-bismethanesulfonyl-2-methylbenzoyl)guanidine] as the compound, how does the Cardioprotective action ([1]; animal models of DMD and dilated cardiomyopathy) read?
**A.** Its Cardioprotective action is “good cardioprotective action”.

**Q.** What about the “Long term accumulation of inflammation and fibrosis” value ([1]; animal models of DMD, skeletal muscles, the heart and the diaphragm) of the same compound?
**A.** Its value is “prevent against the long term accumulation of inflammation and fibrosis”.

**Q.** What about the “Inhibition of NHE-1” value [2] of the same compound?
**A.** The value was “potent and selective inhibitor”.

**Q.** With `CCN(c1nc(N)c(C(=O)NC(=N)N)nc1Cl)C(C)C` [EIPA] as the compound, how does the “Proliferation and migration of human PASMCs” value (human PASMCs) read?
**A.** Its value is “inhibit proliferation and migration”.

**Q.** What about the Proliferation and migration (SuHx rats) of the same compound?
**A.** The Proliferation and migration was “inhibit proliferation and migration”.

**Q.** For `N=C(N)NC(=O)c1ccc(N2CCN(C(=O)c3ccc[nH]3)CC2)c(C(F)(F)F)c1` [Sabiporide], which “Proliferation and migration of human PASMCs” value (human PASMCs) is on record?
**A.** Its value is “inhibit proliferation and migration”.

**Q.** With `CC(C)c1ccc(C(=O)NC(=N)N)cc1S(C)(=O)=O` [cariporide] as the compound, how does the “Development of right heart failure” value [3] read?
**A.** Its value is “attenuate the development of right heart failure”.

**Q.** What does the source list for `Cc1cc(S(C)(=O)=O)c(S(C)(=O)=O)cc1C(=O)NC(=N)N` [Maleate-NF2, N-(4,5-bis-methanesulfonyl-2-methyl-benzoyl)-guanidine]?
**A.** Dissolution levels in FeSSIF pH 5.0 ([4]; 5 min): 2.043 mg/mL; Dissolution levels in FeSSIF pH 5.0 ([4]; 15 min): 4.30±0.02 mg/mL and 4.296 mg/mL; Dissolution levels in FeSSIF pH 5.0 ([4]; 60 min): 6.35±0.02 mg/mL and 6.350 mg/mL; Dissolution levels in FeSSIF pH 5.0 ([4]; 120 min): 6.35±0.02 mg/mL and 6.350 mg/mL; Dissolution behavior compared to prior-art form HCl-H1 [4]: improved dissolution behavior; Thermal stability (mp/dec) [5]: > 200 °C; Hygroscopicity classification acc. to Ph. Eur. criteria (section 5.11.) [6]: non-hygroscopic; also recorded: slightly hygroscopic; Water uptake levels (Water Vapour Sorption) [6]: ≤ 0.3 wt %; Tendency to undergo hydrate formation [6]: no tendency to undergo hydrate formation

**Q.** What does the source list for `Cc1cc(S(C)(=O)=O)c(S(C)(=O)=O)cc1C(=O)NC(=N)N` [Oxalate-NF1, N-(4,5-bis-methanesulfonyl-2-methyl-benzoyl)-guanidine]?
**A.** Dissolution levels in FeSSIF pH 5.0 ([4]; 5 min): 1.329 mg/mL; Dissolution levels in FeSSIF pH 5.0 ([4]; 15 min): 2.09±0.02 mg/mL and 2.095 mg/mL; Dissolution levels in FeSSIF pH 5.0 ([4]; 60 min): 3.04±0.02 mg/mL and 3.042 mg/mL; Dissolution levels in FeSSIF pH 5.0 ([4]; 120 min): 3.02±0.02 mg/mL and 3.025 mg/mL; Dissolution behavior compared to prior-art form HCl-H1 [4]: improved dissolution behavior; Thermal stability (mp/dec) [5]: > 260 °C; Hygroscopicity classification acc. to Ph. Eur. criteria (section 5.11.) [6]: non-hygroscopic; Tendency to undergo hydrate formation [6]: no tendency to undergo hydrate formation

**Q.** For `N=C(N)NC(=O)c1nc(Cl)c(N)nc1N` [Amiloride], which “Proliferation and migration of human PASMCs” value (human PASMCs) is on record?
**A.** The value was “inhibit proliferation and migration”.

**Q.** Which “Dissolution levels in FeSSIF pH 5.0” value ([4]; 5 min) does the source give for `Cc1cc(S(C)(=O)=O)c(S(C)(=O)=O)cc1C(=O)NC(=N)N` [HCl-A3, N-(4,5-bis-methanesulfonyl-2-methyl-benzoyl)-guanidine] here?
**A.** The value was 0.418 mg/mL.

**Q.** And the “Dissolution levels in FeSSIF pH 5.0” value ([4]; 15 min)?
**A.** The value was 0.74±0.02 mg/mL and 0.738 mg/mL.

**Q.** And the “Dissolution levels in FeSSIF pH 5.0” value ([4]; 60 min)?
**A.** Its value is 2.51±0.02 mg/mL and 2.506 mg/mL.

**Q.** What about the “Dissolution levels in FeSSIF pH 5.0” value ([4]; 120 min) of the same compound?
**A.** Its value is 3.78±0.02 mg/mL and 3.781 mg/mL.

**Q.** And the “Thermal stability (mp/dec)” value [5]?
**A.** The value was greater than 240 °C.

**Q.** What about the “Hygroscopicity classification acc. to Ph. Eur. criteria (section 5.11.)” value [6] of the same compound?
**A.** Its value is “non-hygroscopic”.

**Q.** What about the “Water uptake levels (Water Vapour Sorption)” value [6] of the same compound?
**A.** Its value is no more than 0.4 wt %.
